Converted amounts (≈) assume the structure as drawn.
Columns and labels:
[1] = Selectivity ratio of MIC for Pseudomonas aeruginosa NB52023 harboring gyrA T83I mutant/ParC S87L mutant to MIC for Pseudomonas aeruginosa K1542/K767 harboring MexB/MexXY deletion mutant; type: functional
[2] = biological target: DNA gyrase (Escherichia coli, UniProt P0AES4+P0AES6); test: Inhibition of recombinant full-length C-terminal His6-tagged Escherichia coli DNA gyrase AB supercoiling activity using relaxed DNA as substrate preincubated for 30 mins followed by substrate addition and measured after 2 hrs in presence of ATP by size exclusion HPLC analysis; type: protein-complex assay
[3] = Inhibition of recombinant full-length C-terminal His6-tagged Escherichia coli DNA topoisomerase 4 subunit ParC/ParE using kinetoplast DNA as substrate preincubated for 30 mins followed by substrate addition and measured after 1 hr in presence of ATP by size exclusion chromatography
[4] = tested on: Pseudomonas aeruginosa; test: Antibacterial activity against Pseudomonas aeruginosa NB52023 harboring gyrA T83I mutant/ParC S87L mutant by CLSI-based broth microdilution assay; type: functional
[5] = tested on: Klebsiella pneumoniae; test: Antibacterial activity against wild type Klebsiella pneumoniae ATCC 43816 by CLSI-based broth microdilution assay; type: functional
[6] = tested on: Escherichia coli; test: Antibacterial activity against wild type Escherichia coli ATCC 25922 at pH 7.4 by CLSI-based broth microdilution assay; type: functional
[7] = tested on: Pseudomonas aeruginosa; test: Antibacterial activity against wild type Pseudomonas aeruginosa PAO1 K767 by CLSI-based broth microdilution assay; type: functional
[8] = tested on: Escherichia coli; test: Antibacterial activity against Escherichia coli BW25113/JW0451-2 harboring AcrB deletion mutant by CLSI-based broth microdilution assay; type: functional
[9] = tested on: Pseudomonas aeruginosa; test: Antibacterial activity against Pseudomonas aeruginosa K1542/K767 harboring MexB/MexXY deletion mutant by CLSI-based broth microdilution assay; type: functional
[10] = Solubility of the compound in pH 7 PBS incubated for 24 hrs under gently shaking condition by UPLC/UV/CLND/MS analysis; type: physicochemical
[11] = Dissociation constant, pKa of the compound by UV metric method; type: physicochemical
[12] = Photoirradiation factor, ratio of IC50 for BALB/c mouse 3T3 cells under dark condition to IC50 for BALB/c mouse 3T3 cells under 5 J/cm2 sunlight irradiation by neutral red uptake assay; type: ADME, cell-based, NIH3T3; details: BALB/c 3T3 cells, read-out: Ratio IC50
[13] = Selectivity ratio of MIC for wild type Escherichia coli ATCC 25922 to MIC for Escherichia coli BW25113/JW0451-2 harboring AcrB deletion mutant; type: functional
[14] = tested on: Escherichia coli; test: Ratio of MIC for antibacterial activity against wild type Escherichia coli ATCC 25922 at pH 5.8 to MIC for antibacterial activity against wild type Escherichia coli ATCC 25922 at pH 7.4; type: functional
[15] = tested on: NIH3T3; test: Phototoxicity against BALB/c mouse 3T3 cells assessed as reduction in cell viability preincubated for 1 hr followed by 5 J/cm2 UVA sunlight irradiation for 50 mins and subsequent replacement of medium and measured after 24 hrs by neutral red uptake assay; type: cell-based; details: NIH3T3, light or radiation study
[16] = Dark toxicity in BALB/c mouse 3T3 cells assessed as reduction in cell viability incubated for 1 hr prior to 50 mins incubation under dark condition followed by replacement of medium and measured after 24 hrs by neutral red uptake assay; type: cell-based, NIH3T3; details: BALB/c 3T3 cells
[17] = tested on: Escherichia coli; test: Antibacterial activity against wild type Escherichia coli ATCC 25922 at pH 5.8 by CLSI-based broth microdilution assay; type: functional
[18] = Protein binding in pooled human plasma at 10 uM incubated for 4 hrs under shaking condition by LC-MS/MS analysis; type: ADME, cell-free; details: read-out: PPB (converted)
[19] = Intrinsic clearance in human liver microsomes at 1 uM in presence of NADPH and measured up to 30 mins by LC-MS/MS analysis; type: ADME, Microsome; details: read-out: CLH
[20] = Intrinsic clearance in rat liver microsomes at 1 uM in presence of NADPH and measured up to 30 mins by LC-MS/MS analysis; type: ADME, Microsome; details: read-out: CLH
[21] = Protein binding in Sprague-Dawley rat plasma at 10 uM incubated for 4 hrs under shaking condition by LC-MS/MS analysis; type: ADME, cell-free; details: read-out: PPB (converted)
[22] = Protein binding in CD1 mouse plasma at 10 uM incubated for 4 hrs under shaking condition by LC-MS/MS analysis; type: ADME, cell-free; details: read-out: PPB (converted)
[23] = n-Octanol-PBS buffer partition coefficient, log D of the compound at pH 7.4 after overnight incubation by LC/UV/qTOF analysis; type: physicochemical

SMILES	MIC [4]	MIC [5]	MIC [6]	MIC [7]	MIC [8]	MIC [9]	other results
Cc1c(N2CC[C@@H]([C@H](C)N)C2)c(F)cc2cc(C(=O)O)c(=O)n(C3CC3)c12	64 µg/mL (≈ 171 µM)	8 µg/mL (≈ 21.4 µM)	4 µg/mL (≈ 10.7 µM)	–	–	–	Selectivity ratio [1]: 8; IC50 [2]: 2910 nM; IC50 [3]: 4800 nM
Cc1c(N2C[C@@H]3[C@@H](N)[C@@H]3C2)c(F)cc2c(CN)cc(=O)n(C3CC3)c12	2 µg/mL (≈ 5.84 µM)	4 µg/mL (≈ 11.7 µM)	1 µg/mL (≈ 2.92 µM)	16 µg/mL (≈ 46.7 µM)	0.25 µg/mL (≈ 0.73 µM)	1 µg/mL (≈ 2.92 µM)	–
COc1cc(=O)n(C2CC2)c2c(C)c(N3CC[C@@H]([C@H](C)N)C3)c(F)cc12	16 µg/mL (≈ 44.5 µM)	16 µg/mL (≈ 44.5 µM)	32 µg/mL (≈ 89 µM)	32 µg/mL (≈ 89 µM)	1 µg/mL (≈ 2.78 µM)	8 µg/mL (≈ 22.3 µM)	–
Cc1c(-c2cc(F)c(N)cc2F)c(F)cc2c(CN)cc(=O)n(C3CC3)c12	8 µg/mL (≈ 21.4 µM)	1 µg/mL (≈ 2.68 µM)	0.25 µg/mL (≈ 0.67 µM)	8 µg/mL (≈ 21.4 µM)	≤ 0.03 µg/mL	2 µg/mL (≈ 5.36 µM)	solubility ([10]; buffer, pH 7, 24 h): Insoluble
Cc1c(N2CC[C@@H]([C@H](C)N)C2)c(F)cc2c(C(=O)O)cc(=O)n(C3CC3)c12	> 32 µg/mL	> 32 µg/mL	> 32 µg/mL	> 32 µg/mL	–	> 32 µg/mL	pKa [11]: 2.2
Cc1c(N2CC[C@@H]([C@H](C)N)C2)c(F)cc2c(-c3n[nH]c(=O)o3)cc(=O)n(C3CC3)c12	32 µg/mL (≈ 77.4 µM)	32 µg/mL (≈ 77.4 µM)	8 µg/mL (≈ 19.3 µM)	> 32 µg/mL	–	8 µg/mL (≈ 19.3 µM)	–
NCc1cc(=O)n(C2CC2)c2c(OC(F)F)c(N3CC4CC4(N)C3)c(F)cc12 (stereo unspecified)	32 µg/mL (≈ 81.1 µM)	8 µg/mL (≈ 20.3 µM)	2 µg/mL (≈ 5.07 µM)	> 32 µg/mL	1 µg/mL (≈ 2.54 µM)	8 µg/mL (≈ 20.3 µM)	–
Cc1c(N2CC[C@@H]([C@H](C)N)C2)c(F)cc2c(O)cc(=O)n(C3CC3)c12	> 32 µg/mL	> 32 µg/mL	> 32 µg/mL	> 32 µg/mL	16 µg/mL (≈ 46.3 µM)	> 32 µg/mL	pKa [11]: 5.7
Cc1c(N2CC3CC3(N)C2)c(F)cc2c(CN)cc(=O)n(C3CC3)c12 (stereo unspecified)	1 µg/mL (≈ 2.92 µM)	0.5 µg/mL (≈ 1.46 µM)	0.25 µg/mL (≈ 0.73 µM)	4 µg/mL (≈ 11.7 µM)	0.06 µg/mL (≈ 0.175 µM)	0.5 µg/mL (≈ 1.46 µM)	selectivity ratio [12]: 104; Selectivity ratio [13]: 4; Ratio [14]: 128; IC50 [15]: 3030 nM; IC50 at 110 min [16]: 316000 nM; MIC [17]: 32 µg/mL (≈ 93.5 µM)
Cc1c(N2CC3CC3(N)C2)c(F)cc2c(CN)c(O)c(=O)n(C3CC3)c12 (stereo unspecified)	2 µg/mL (≈ 5.58 µM)	1 µg/mL (≈ 2.79 µM)	0.5 µg/mL (≈ 1.4 µM)	2 µg/mL (≈ 5.58 µM)	0.25 µg/mL (≈ 0.698 µM)	0.5 µg/mL (≈ 1.4 µM)	–
C[C@@H]1CN(c2c(F)c(N)c3c(=O)c(C(=O)O)cn(C4CC4)c3c2F)C[C@H](C)N1 [SPARFLOXACIN]	–	–	–	–	–	–	selectivity ratio [12]: > 82
Cc1c(N2CC[C@H](N)C2)c(F)cc2c(CN)cc(=O)n(C3CC3)c12	2 µg/mL (≈ 6.05 µM)	2 µg/mL (≈ 6.05 µM)	2 µg/mL (≈ 6.05 µM)	4 µg/mL (≈ 12.1 µM)	0.5 µg/mL (≈ 1.51 µM)	0.5 µg/mL (≈ 1.51 µM)	selectivity ratio [12]: 1.7; Ratio [14]: >=32; IC50 [15]: 288000 nM; MIC [17]: > 32 µg/mL
Cc1c(N2CC3CC3(CN)C2)c(F)cc2c(CN)cc(=O)n(C3CC3)c12 (racemic)	16 µg/mL (≈ 44.9 µM)	32 µg/mL (≈ 89.8 µM)	8 µg/mL (≈ 22.4 µM)	32 µg/mL (≈ 89.8 µM)	1 µg/mL (≈ 2.81 µM)	4 µg/mL (≈ 11.2 µM)	–
Cc1c(N2CC[C@@H]([C@H](C)N)C2)c(F)cc2c(=O)n(N)c(=O)n(C3CC3)c12	2 µg/mL (≈ 5.53 µM)	2 µg/mL (≈ 5.53 µM)	1 µg/mL (≈ 2.77 µM)	4 µg/mL (≈ 11.1 µM)	–	1 µg/mL (≈ 2.77 µM)	IC50 [3]: 220 nM
Cc1c(N2CC[C@@H]([C@H](C)N)C2)c(F)cc2ccc(=O)n(C3CC3)c12	8 µg/mL (≈ 24.3 µM)	4 µg/mL (≈ 12.1 µM)	1 µg/mL (≈ 3.04 µM)	16 µg/mL (≈ 48.6 µM)	0.06 µg/mL (≈ 0.182 µM)	4 µg/mL (≈ 12.1 µM)	fraction unbound at 4 h, 10 µM [18]: 0.1; microsomal CLint at 1 µM [19]: < 7.7 µL/min/mg; IC50 [2]: 430 nM; microsomal CLint at 1 µM [20]: 10 µL/min/mg; IC50 [3]: 390 nM; fraction unbound at 4 h, 10 µM [21]: 0.25; fraction unbound at 4 h, 10 µM [22]: 0.19; solubility at 24 h ([10]; PBS, pH 7): 498 µg/mL (≈ 1510 µM); logD [23]: 0.74; MIC [17]: 16 µg/mL (≈ 48.6 µM)

— ChEMBL document CHEMBL4616724, “Topoisomerase Inhibitors Addressing Fluoroquinolone Resistance in Gram-Negative Bacteria” (J Med Chem, 2020)
